From US20260097047A1, “Small molecule inhibitors of the ribosome biogenesis factor NVL2” (Board of Regents, The University of Texas System, priority 2023, published 2026)
Read-outs that look alike come from different tables or passages of the source.

Test system: HCT116 cells
Test: Cell viability assay (CellTiter-Glo, 72 hours) in HCT116 human colorectal cancer cells
Assay type: cell-based
Settings: HCT116, 72 hours, read-out: Activity
Procedure: Cell culture: The HCT116 cell line was obtained from ATCC and cultured in Dulbecco's Modified Eagle's Medium (DMEM)-high glucose (Sigma Aldrich #D5796) supplemented with 10% fetal bovine serum (FBS) (Sigma-Aldrich #F2442) and 2 mM L-Glutamine (Sigma Aldrich #G7513). Cells were cultured at 37° C. in 5% CO2. The identity of all cell lines was confirmed by short tandem repeat (STR) analysis and confirmed to be mycoplasma-free using a PCR based assay (Genatlantis).
Cell viability assay: In 96-well assay plates (Corning #2903), 2,000 cells were plated per well in 100 μL of medium and allowed to adhere overnight. The next day, compounds suspended in DMSO were dispensed to the assayed wells using a D300e Digital Dispenser (Tecan). All wells were normalized to 0.5% DMSO. 72 hours after incubation at 37° C. in 5% CO2, cell viability was assayed using an ATP-based luminescent viability assay, CellTiter-Glo (Promega #G8462). Substrate was mixed 1:1 with phosphate-buffered saline (PBS) supplemented with 1% Triton X-100, and 40 μL of this mixture was added to the assay wells. Plates were shaken on a microplate shaker for 10 minutes at room temperature. Luminescence (CellTiter-Glo) was recorded using a Synergy 2 microplate reader (BioTek). In Prism 9 software (GraphPad), ten-point dose response curves were plotted with baseline-correction to the vehicle control well, and IC50 values were calculated by curve fitting using asymmetric (five parameter), least squares fit.

Structure (SMILES)	IC50 (Table 5) [nM]	other results
CC#CCN1C(=O)c2ccc(Cl)cc2Sc2cc(NC(=O)N3CCC3)ccc21	–	IC50 (Table 1): < 500 nM
CC#CCN1C(=O)c2ccc(Cl)cc2Sc2cc(NC(=O)N3CCCCC3)ccc21	–	IC50 (Table 1): < 500 nM
CC#CCN1C(=O)c2ccccc2Sc2cc(NC(=O)N3CCCCC3)ccc21	–	IC50 (Table 1): < 500 nM
CC#CCN1C(=O)c2ccccc2Sc2cc(NC(=O)N3CCCC3)cnc21	–	IC50 (Table 1): < 500 nM
CC#CCN1C(=O)c2ccc(Cl)cc2Sc2cc(NC(=S)N3CCC3)ccc21	–	IC50 (Table 2): < 500 nM
CC#CCN1C(=O)c2ccccc2Sc2cc(NC(=S)N3CCCCC3)ccc21	–	IC50 (Table 2): < 500 nM
CC#CCN1C(=O)c2ccccc2Sc2cc(NC(=S)N3CCCC3)ccc21	–	IC50 (Table 2): < 500 nM
CC#CCN1C(=O)c2ccccc2Sc2cc(NC(=S)N3CCCC3)cnc21	–	IC50 (Table 2): < 500 nM
CC#CCN1C(=O)c2ccccc2Sc2cc(NC(=O)Nc3ccc4oc(C)nc4c3)ccc21	–	IC50 (Table 3): < 500 nM
CC#CCN1C(=O)c2ccccc2Sc2cc(NC(=O)NC34CC(OC)(C3)C4)ccc21	–	IC50 (Table 3): < 500 nM
CC#CCN1C(=O)c2ccccc2Sc2cc(NC(=O)NC34CC(OC)(C3)C4)cnc21	–	IC50 (Table 3): < 500 nM
CC#CCN1C(=O)c2ccccc2Sc2cc(NC(=O)Nc3ccc4oc(=O)n(C)c4c3)ccc21	–	IC50 (Table 3): < 500 nM
CC#CCN1C(=O)c2ccccc2Sc2cc(NC(=O)Nc3ccc4oc(=O)n(C)c4c3)cnc21	–	IC50 (Table 3): < 500 nM
CC#CCN1C(=O)c2ccccc2Sc2cc(NC(=O)Nc3ccc4scnc4c3)cnc21	–	IC50 (Table 3): < 500 nM
CC#CCN1C(=O)c2ccccc2Sc2cc(NC(=S)Nc3ccc4oc(=O)n(C)c4c3)cnc21	–	IC50 (Table 4): < 500 nM
CC#CCN1C(=O)c2ccccc2Sc2cc(NC(=S)Nc3ccc4oc(=O)n(C)c4c3)ccc21	–	IC50 (Table 4): < 500 nM
CC#CCN1C(=O)c2ccccc2Sc2cc(NC(=S)Nc3ccc4scnc4c3)ccc21	–	IC50 (Table 4): < 500 nM
CC#CCN1C(=O)c2ccccc2Sc2cc(NC(=S)Nc3ccc4scnc4c3)cnc21	–	IC50 (Table 4): < 500 nM
Cc1ccc(F)c(Nc2ccc3c(c2)Sc2ccccc2C(=O)N3CC#CCl)n1	< 500	–
Cc1ccc(F)c(Nc2cnc3c(c2)Sc2ccccc2C(=O)N3CC#CCl)n1	< 500	–
Cc1cnc(Nc2ccc3c(c2)Sc2ccccc2C(=O)N3CC#CCl)c(C)c1	< 500	–

Structure (SMILES)	IC50 (Table 5) [nM]	other results
Cc1cnc(C)c(Nc2ccc3c(c2)Sc2ccccc2C(=O)N3CC#CCl)n1	< 500	–
Cc1ccnnc1Nc1ccc2c(c1)Sc1ccccc1C(=O)N2CC#CCl	< 500	–
O=C1c2ccccc2Sc2cc(Nc3cccnn3)ccc2N1CC#CCl	< 500	–
O=C1c2ccccc2Sc2cc(Nc3cccnn3)cnc2N1CC#CCl	< 500	–
CC#CCN1C(=O)c2ccccc2Sc2cc(Nc3nccc(C#N)c3F)cnc21	< 500	–
CC#CCN1C(=O)c2ccccc2Sc2cc(Nc3nccc(C)c3F)cnc21	< 500	–
CC#CCN1C(=O)c2ccccc2Sc2cc(Nc3ncc(C)cc3F)cnc21	< 500	–
CC#CCN1C(=O)c2ccccc2Sc2cc(Nc3nc(C)ccc3F)cnc21	< 500	–
CC#CCN1C(=O)c2ccccc2Sc2cc(Nc3ncccc3OC)cnc21	< 500	–
CC#CCN1C(=O)c2ccccc2Sc2cc(Nc3nccc(C#N)c3C)cnc21	< 500	–
CC#CCN1C(=O)c2ccccc2Sc2cc(Nc3ncc(C#N)cc3C)cnc21	< 500	–
CC#CCN1C(=O)c2ccccc2Sc2cc(Nc3nc(C#N)ccc3C)cnc21	< 500	–
CC#CCN1C(=O)c2ccccc2Sc2cc(Nc3ncc(C)nc3C)cnc21	< 500	–
CC#CCN1C(=O)c2ccccc2Sc2cc(Nc3ncc(C)cc3C)cnc21	< 500	–
CC#CCN1C(=O)c2ccccc2Sc2cc(Nc3nc(C)cnc3C)cnc21	< 500	–
CC#CCN1C(=O)c2ccccc2Sc2cc(Nc3nnccc3C#N)cnc21	< 500	–
CC#CCN1C(=O)c2ccccc2Sc2cc(Nc3nnccc3C)cnc21	< 500	–
CC#CCN1C(=O)c2ccccc2Sc2cc(Nc3cc(C)cnn3)cnc21	< 500	–
CC#CCN1C(=O)c2ccccc2Sc2cc(Nc3ncnc(C#N)c3C)cnc21	< 500	–
CC#CCN1C(=O)c2ccccc2Sc2cc(Nc3ccc(C)nn3)cnc21	< 500	–
CC#CCN1C(=O)c2ccccc2Sc2cc(Nc3cccnn3)cnc21	< 500	–
